# Results taken from US9980943B2, “Methods of treating muscular dystrophy” (BOARD OF REGENTS OF THE NEVADA SYSTEM OF HIGHER EDUCATION, …, priority 2013, dated 2018).
# What was measured:
# Type in all cases: cell-based, mouse
# [1] = tested on: α7 integrin (LacZ reporter in α7βgal+/− myoblasts); assay: Myoblast α7+/LacZ integrin FDG assay (Burkin assay in myoblasts, 96-well); conditions: 96-well; for Burkin Assay in Myoblasts, value relative to DMSO: SU9516 analogs, N=3-6; for Burkin Assay in Myoblasts, signal relative to DMSO: α7+/LacZ myoblasts
# [2] = tested on: α7 integrin (LacZ reporter in α7+/LacZ myotubes); assay: Myotube α7 integrin FDG assay (Burkin assay in myotubes, 96-well); conditions: for Burkin Assay in Myotubes, value relative to DMSO: SU9516 analogs, 96-well, N=3-6
# [3] = tested on: β-galactosidase in CMV-LacZ C2C12 myoblasts; assay: CMV-LacZ secondary screen in C2C12 myoblasts (β-Gal stabilizing assay); conditions: for CMV-LACZ in Myoblasts, value relative to DMSO: SU9516 analogs, C2C12 CMV-LacZ, N=2; for CMV-LACZ in Myoblasts (β-galactosidase activity relative to DMSO): CMV-LacZ C2C12 myoblasts
# Outline: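 Stable CMV-LacZ C2C12 clone; six-point curve 0.5–40 μM; duplicates.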
# [4] = tested on: β-galactosidase in CMV-LacZ C2C12 myotubes; assay: CMV-LacZ secondary screen in C2C12 myotubes (β-Gal stabilizing assay); conditions: for CMV-LACZ in Myotubes, value relative to DMSO: SU9516 analogs, C2C12 CMV-LacZ, N=2; for CMV-LACZ in Myotubes, signal relative to DMSO: C2C12 CMV-LacZ myotubes, fold relative to DMSO
# Outline: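 β-Gal level was the read-out, measured in a clonal C2C12 line expressing LacZ from a CMV promoter. Dose-response curves used six concentrations, 0.5 μM up to 40 μM, with duplicate points.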
structure (smiles),measurement,setting,value
Cc1ccc2c(c1)/C(=C/c1ccccc1)C(=O)N2 [MLS001202354-01],"Burkin Assay in Myoblasts, value relative to DMSO",[1]; 0.5 uM,1.077
same,"Burkin Assay in Myoblasts, value relative to DMSO",[1]; 1 uM,1.023
same,"Burkin Assay in Myoblasts, value relative to DMSO",[1]; 5 uM,1.036
same,"Burkin Assay in Myoblasts, value relative to DMSO",[1]; 10 uM,1.073
same,"Burkin Assay in Myoblasts, value relative to DMSO",[1]; 20 uM,0.516
same,"Burkin Assay in Myoblasts, value relative to DMSO",[1]; 40 uM,0.4275
same,"Burkin Assay in Myotubes, value relative to DMSO",[2]; 0.5 uM,0.8459
same,"Burkin Assay in Myotubes, value relative to DMSO",[2]; 1 uM,0.9022
same,"Burkin Assay in Myotubes, value relative to DMSO",[2]; 5 uM,0.9545
same,"Burkin Assay in Myotubes, value relative to DMSO",[2]; 10 uM,1.069
same,"Burkin Assay in Myotubes, value relative to DMSO",[2]; 20 uM,0.5824
same,"Burkin Assay in Myotubes, value relative to DMSO",[2]; 40 uM,0.5785
same,"CMV-LACZ in Myoblasts, value relative to DMSO",[3]; 0.5 uM,1.2275
same,"CMV-LACZ in Myoblasts, value relative to DMSO",[3]; 1 uM,0.9521
same,"CMV-LACZ in Myoblasts, value relative to DMSO",[3]; 5 uM,0.9669
same,"CMV-LACZ in Myoblasts, value relative to DMSO",[3]; 10 uM,0.9170
same,"CMV-LACZ in Myoblasts, value relative to DMSO",[3]; 20 uM,0.8378
same,"CMV-LACZ in Myoblasts, value relative to DMSO",[3]; 40 uM,0.7437
same,"CMV-LACZ in Myotubes, value relative to DMSO",[4]; 0.5 uM,1.0676
same,"CMV-LACZ in Myotubes, value relative to DMSO",[4]; 1 uM,0.9200
same,"CMV-LACZ in Myotubes, value relative to DMSO",[4]; 5 uM,0.8910
same,"CMV-LACZ in Myotubes, value relative to DMSO",[4]; 10 uM,1.0340
same,"CMV-LACZ in Myotubes, value relative to DMSO",[4]; 20 uM,0.7000
same,"CMV-LACZ in Myotubes, value relative to DMSO",[4]; 40 uM,0.7863
OC(c1nc2ccc(F)cc2[nH]1)C(O)c1nc2ccc(F)cc2[nH]1 (stereo not drawn) [MLS001182368-01],"Burkin Assay in Myoblasts, signal relative to DMSO",[1]; 0.5 uM,1.081
same,"Burkin Assay in Myoblasts, signal relative to DMSO",[1]; 1 uM,1.215
same,"Burkin Assay in Myoblasts, signal relative to DMSO",[1]; 5 uM,0.914
same,"Burkin Assay in Myoblasts, signal relative to DMSO",[1]; 10 uM,0.8945
same,"Burkin Assay in Myoblasts, signal relative to DMSO",[1]; 20 uM,1.001
same,"Burkin Assay in Myoblasts, signal relative to DMSO",[1]; 40 uM,0.8952
same,"Burkin Assay in Myotubes, α7 integrin LacZ reporter signal relative to DMSO",[2]; 0.5 uM,1.044
same,"Burkin Assay in Myotubes, α7 integrin LacZ reporter signal relative to DMSO",[2]; 1 uM,1.0792
same,"Burkin Assay in Myotubes, α7 integrin LacZ reporter signal relative to DMSO",[2]; 5 uM,1.2117
same,"Burkin Assay in Myotubes, α7 integrin LacZ reporter signal relative to DMSO",[2]; 10 uM,1.02
same,"Burkin Assay in Myotubes, α7 integrin LacZ reporter signal relative to DMSO",[2]; 20 uM,0.9097
same,"Burkin Assay in Myotubes, α7 integrin LacZ reporter signal relative to DMSO",[2]; 40 uM,0.9193
same,CMV-LACZ in Myoblasts (β-galactosidase activity relative to DMSO),[3]; 0.5 uM,0.9571
same,CMV-LACZ in Myoblasts (β-galactosidase activity relative to DMSO),[3]; 1 uM,0.8783
same,CMV-LACZ in Myoblasts (β-galactosidase activity relative to DMSO),[3]; 5 uM,1.0528
same,CMV-LACZ in Myoblasts (β-galactosidase activity relative to DMSO),[3]; 10 uM,0.9225
same,CMV-LACZ in Myoblasts (β-galactosidase activity relative to DMSO),[3]; 20 uM,1.2322
same,CMV-LACZ in Myoblasts (β-galactosidase activity relative to DMSO),[3]; 40 uM,1.1615
same,"CMV-LACZ in Myotubes, signal relative to DMSO",[4]; 0.5 uM,0.8667
same,"CMV-LACZ in Myotubes, signal relative to DMSO",[4]; 1 uM,1.0619
same,"CMV-LACZ in Myotubes, signal relative to DMSO",[4]; 5 uM,0.8931
same,"CMV-LACZ in Myotubes, signal relative to DMSO",[4]; 10 uM,0.8690
same,"CMV-LACZ in Myotubes, signal relative to DMSO",[4]; 20 uM,0.9953
same,"CMV-LACZ in Myotubes, signal relative to DMSO",[4]; 40 uM,1.0318
CCOc1cc(C)c(S(=O)(=O)N2CCCCC2)cc1C [MLS000693795-01],"Burkin Assay in Myoblasts, signal relative to DMSO",[1]; 0.5 uM,1.1137
same,"Burkin Assay in Myoblasts, signal relative to DMSO",[1]; 1 uM,1.242
same,"Burkin Assay in Myoblasts, signal relative to DMSO",[1]; 5 uM,1.02
same,"Burkin Assay in Myoblasts, signal relative to DMSO",[1]; 10 uM,0.9728
same,"Burkin Assay in Myoblasts, signal relative to DMSO",[1]; 20 uM,1.187
same,"Burkin Assay in Myoblasts, signal relative to DMSO",[1]; 40 uM,1.24
same,"Burkin Assay in Myotubes, α7 integrin LacZ reporter signal relative to DMSO",[2]; 0.5 uM,0.8397
same,"Burkin Assay in Myotubes, α7 integrin LacZ reporter signal relative to DMSO",[2]; 1 uM,0.9171
same,"Burkin Assay in Myotubes, α7 integrin LacZ reporter signal relative to DMSO",[2]; 5 uM,0.9381
same,"Burkin Assay in Myotubes, α7 integrin LacZ reporter signal relative to DMSO",[2]; 10 uM,0.9384
same,"Burkin Assay in Myotubes, α7 integrin LacZ reporter signal relative to DMSO",[2]; 20 uM,1.002
same,"Burkin Assay in Myotubes, α7 integrin LacZ reporter signal relative to DMSO",[2]; 40 uM,0.9513
same,CMV-LACZ in Myoblasts (β-galactosidase activity relative to DMSO),[3]; 0.5 uM,0.9100
same,CMV-LACZ in Myoblasts (β-galactosidase activity relative to DMSO),[3]; 1 uM,1.1104
same,CMV-LACZ in Myoblasts (β-galactosidase activity relative to DMSO),[3]; 5 uM,0.9554
same,CMV-LACZ in Myoblasts (β-galactosidase activity relative to DMSO),[3]; 10 uM,0.9207
same,CMV-LACZ in Myoblasts (β-galactosidase activity relative to DMSO),[3]; 20 uM,0.8526
same,CMV-LACZ in Myoblasts (β-galactosidase activity relative to DMSO),[3]; 40 uM,0.8730
same,"CMV-LACZ in Myotubes, signal relative to DMSO",[4]; 0.5 uM,0.9771
same,"CMV-LACZ in Myotubes, signal relative to DMSO",[4]; 1 uM,1.0314
same,"CMV-LACZ in Myotubes, signal relative to DMSO",[4]; 5 uM,1.1780
same,"CMV-LACZ in Myotubes, signal relative to DMSO",[4]; 10 uM,1.0774
same,"CMV-LACZ in Myotubes, signal relative to DMSO",[4]; 20 uM,1.0453
same,"CMV-LACZ in Myotubes, signal relative to DMSO",[4]; 40 uM,1.0716
CCC(C)n1[nH]c(=O)cc1N (stereo not drawn) [MLS000073150-01],"Burkin Assay in Myoblasts, signal relative to DMSO",[1]; 0.5 uM,1.262
same,"Burkin Assay in Myoblasts, signal relative to DMSO",[1]; 1 uM,1.0875
same,"Burkin Assay in Myoblasts, signal relative to DMSO",[1]; 5 uM,0.9262
same,"Burkin Assay in Myoblasts, signal relative to DMSO",[1]; 10 uM,0.909
same,"Burkin Assay in Myoblasts, signal relative to DMSO",[1]; 20 uM,1.139
same,"Burkin Assay in Myoblasts, signal relative to DMSO",[1]; 40 uM,1.068
same,"Burkin Assay in Myotubes, α7 integrin LacZ reporter signal relative to DMSO",[2]; 0.5 uM,1.111
same,"Burkin Assay in Myotubes, α7 integrin LacZ reporter signal relative to DMSO",[2]; 1 uM,0.9205
same,"Burkin Assay in Myotubes, α7 integrin LacZ reporter signal relative to DMSO",[2]; 5 uM,0.9467
same,"Burkin Assay in Myotubes, α7 integrin LacZ reporter signal relative to DMSO",[2]; 10 uM,0.9476
same,"Burkin Assay in Myotubes, α7 integrin LacZ reporter signal relative to DMSO",[2]; 20 uM,0.8369
same,"Burkin Assay in Myotubes, α7 integrin LacZ reporter signal relative to DMSO",[2]; 40 uM,0.856
same,CMV-LACZ in Myoblasts (β-galactosidase activity relative to DMSO),[3]; 0.5 uM,1.0753
same,CMV-LACZ in Myoblasts (β-galactosidase activity relative to DMSO),[3]; 1 uM,1.8970
same,CMV-LACZ in Myoblasts (β-galactosidase activity relative to DMSO),[3]; 5 uM,0.8193
same,CMV-LACZ in Myoblasts (β-galactosidase activity relative to DMSO),[3]; 10 uM,0.9954
same,CMV-LACZ in Myoblasts (β-galactosidase activity relative to DMSO),[3]; 20 uM,0.9491
same,CMV-LACZ in Myoblasts (β-galactosidase activity relative to DMSO),[3]; 40 uM,0.9000
same,"CMV-LACZ in Myotubes, signal relative to DMSO",[4]; 0.5 uM,1.0752
same,"CMV-LACZ in Myotubes, signal relative to DMSO",[4]; 1 uM,1.0848
same,"CMV-LACZ in Myotubes, signal relative to DMSO",[4]; 5 uM,1.2058
same,"CMV-LACZ in Myotubes, signal relative to DMSO",[4]; 10 uM,1.1088
same,"CMV-LACZ in Myotubes, signal relative to DMSO",[4]; 20 uM,0.9750
same,"CMV-LACZ in Myotubes, signal relative to DMSO",[4]; 40 uM,1.0390
CC(C)(C)c1csc(NC(=O)c2cccnc2)n1 [MLS001164432-01],"Burkin Assay in Myoblasts, signal relative to DMSO",[1]; 0.5 uM,1.248
same,"Burkin Assay in Myoblasts, signal relative to DMSO",[1]; 1 uM,1.1813
same,"Burkin Assay in Myoblasts, signal relative to DMSO",[1]; 5 uM,1.091
same,"Burkin Assay in Myoblasts, signal relative to DMSO",[1]; 10 uM,1.067
same,"Burkin Assay in Myoblasts, signal relative to DMSO",[1]; 20 uM,0.7137
same,"Burkin Assay in Myoblasts, signal relative to DMSO",[1]; 40 uM,0.6622
same,"Burkin Assay in Myotubes, α7 integrin LacZ reporter signal relative to DMSO",[2]; 0.5 uM,0.8982
same,"Burkin Assay in Myotubes, α7 integrin LacZ reporter signal relative to DMSO",[2]; 1 uM,0.9509
same,"Burkin Assay in Myotubes, α7 integrin LacZ reporter signal relative to DMSO",[2]; 5 uM,0.9878
same,"Burkin Assay in Myotubes, α7 integrin LacZ reporter signal relative to DMSO",[2]; 10 uM,0.9985
same,"Burkin Assay in Myotubes, α7 integrin LacZ reporter signal relative to DMSO",[2]; 20 uM,0.7121
same,"Burkin Assay in Myotubes, α7 integrin LacZ reporter signal relative to DMSO",[2]; 40 uM,0.8464
same,CMV-LACZ in Myoblasts (β-galactosidase activity relative to DMSO),[3]; 0.5 uM,0.9600
same,CMV-LACZ in Myoblasts (β-galactosidase activity relative to DMSO),[3]; 1 uM,0.7842
same,CMV-LACZ in Myoblasts (β-galactosidase activity relative to DMSO),[3]; 5 uM,1.1387
same,CMV-LACZ in Myoblasts (β-galactosidase activity relative to DMSO),[3]; 10 uM,1.3183
same,CMV-LACZ in Myoblasts (β-galactosidase activity relative to DMSO),[3]; 20 uM,1.1059
same,CMV-LACZ in Myoblasts (β-galactosidase activity relative to DMSO),[3]; 40 uM,1.1289
same,"CMV-LACZ in Myotubes, signal relative to DMSO",[4]; 0.5 uM,0.9248
same,"CMV-LACZ in Myotubes, signal relative to DMSO",[4]; 1 uM,1.3543
same,"CMV-LACZ in Myotubes, signal relative to DMSO",[4]; 5 uM,0.9500
same,"CMV-LACZ in Myotubes, signal relative to DMSO",[4]; 10 uM,1.2418
same,"CMV-LACZ in Myotubes, signal relative to DMSO",[4]; 20 uM,1.1358
same,"CMV-LACZ in Myotubes, signal relative to DMSO",[4]; 40 uM,1.1179
